Test results from PubChem BioAssay (NCI).
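Values below derive from 48-hour exposures of cells grown in 96-well plates, with endpoints linearly interpolated between the two concentrations bracketing the appropriate inhibition level. Abbreviation: GI50, concentration required for 50% inhibition of growth. At the TGI there is no net growth.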

Assays:
Experiment in all cases: inhibition of tumour cell growth, NCI panel, 48 h
M14 melanoma = tested on: M14 melanoma
OVCAR-8 ovarian = tested on: OVCAR-8 ovarian
UACC-62 melanoma = tested on: UACC-62 melanoma
TK-10 renal = tested on: TK-10 renal
HCT-15 colon = tested on: HCT-15 colon
HOP-62 NSCLC = tested on: HOP-62 NSCLC
MDA-MB-231 breast = tested on: MDA-MB-231 breast
CAKI-1 renal = tested on: CAKI-1 renal
U251 CNS = tested on: U251 CNS
KM20L2 colon = tested on: KM20L2 colon
DMS 273 small cell lung = tested on: DMS 273 small cell lung

Row | Structure (SMILES) | TGI (M14 melanoma) [µM] | TGI (OVCAR-8 ovarian) [µM] | TGI (UACC-62 melanoma) [µM] | TGI (TK-10 renal) [µM] | TGI (HCT-15 colon) [µM] | TGI (HOP-62 NSCLC) [µM] | TGI (MDA-MB-231 breast) [µM] | TGI (CAKI-1 renal) [µM] | TGI (U251 CNS) [µM] | GI50 (UACC-62 melanoma) [µM] | GI50 (CAKI-1 renal) [µM] | TGI (KM20L2 colon) [µM] | TGI (DMS 273 small cell lung) [µM]
1 | Cc1ccc(S(=O)(=O)NC(CCC(=O)NNc2ccccc2)C(=O)NNc2ccccc2)cc1 (configuration not stated) | 78.8 | > 100 | > 100 | 46.5 | > 100 | > 100 | > 100 | > 100 | > 100 | – | – | – | –
2 | CCn1c(=O)c2nc(SC)sc2n(-c2ccc(C)cc2)c1=O | > 45.2 | > 100 | > 100 | > 100 | > 100 | > 100 | > 100 | > 100 | > 100 | 41.2 | > 100 | – | –
3 | NNC(=O)Nc1nc2ccc(NN)cc2[nH]1 | 84.4 | > 100 | 56.4 | 82.6 | > 100 | > 100 | > 100 | > 100 | > 100 | – | – | – | –
4 | O=c1[nH]c(=O)n(C2CC(O)C(CO)O2)cc1Oc1ccccc1 (configuration not stated) | > 100 | > 100 | > 100 | > 100 | > 100 | > 100 | > 100 | > 100 | > 100 | – | – | – | –
5 | Cc1c(C(=O)c2ccc(N)c3ccccc23)c2ccccc2n1CCN1CCOCC1 | 63.7 | > 94.5 | 40.6 | > 82.2 | > 95.7 | > 90.1 | > 100 | > 100 | > 95.6 | – | – | – | –
6 | CC(C)(C)OC(=O)N/C(C=O)=C\C1CCCCC1 | 30.4 | 31.7 | 30.7 | 32.9 | 41.8 | 58.9 | 44.2 | 46.9 | 40.3 | – | – | – | –
7 | COc1cccc(N=N/C(=N/NC(=O)c2ccc(C)cc2)c2ccc(N(CCC#N)CCC#N)cc2OC)c1 | > 100 | > 100 | > 100 | > 100 | > 100 | > 100 | > 100 | > 100 | > 100 | – | – | – | –
8 | CSC(=S)Nc1cc(C)cc(C)n1 | > 31.6 | > 31.6 | > 31.6 | > 31.6 | > 31.6 | > 100 | > 100 | > 31.6 | > 31.6 | – | – | – | –
9 | N#CC1(C#N)C(C#N)(C#N)C1(C#N)C(N)=O | > 100 | > 100 | > 100 | > 100 | > 100 | > 100 | > 100 | > 100 | > 100 | – | – | – | –
10 | C[C@]12CC[C@H]3[C@@H](CCC4=CC(=O)C=C[C@@]43OC(=O)C(F)(F)F)[C@@H]1CCC2=O | > 100 | > 100 | > 100 | > 100 | > 100 | > 100 | > 100 | > 100 | > 100 | – | – | – | –
11 | Cc1ccc(S(=O)(=O)N2C[C@@H]3CC[C@]4(CO[Si](C)(C)C(C)(C)C)N[C@@H](c5ccccc5)[C@H]2[C@H]34)cc1 | > 100 | > 100 | > 100 | > 100 | > 100 | > 100 | > 100 | > 100 | > 100 | – | – | – | –
12 | CC(C)(C)OC(=O)NC12C3C4C1C1C2C3C41NC(=O)OC(C)(C)C (configuration not stated) | > 100 | > 100 | > 100 | > 100 | > 100 | > 100 | 92.1 | > 100 | > 100 | – | – | – | –
13 | CN(Cc1cnc2nc(N)nc(N)c2n1)c1ccc(C(=O)NC23CC4CC(CC(C4)C2)C3)cc1 | 18.4 | 19.9 | 19.3 | 30.8 | 16.6 | 28.2 | 39.5 | 27.8 | 44.3 | – | – | – | –
14 | COc1ccccc1OCC(COC(=O)Nc1ccccc1)OC(=O)Nc1ccccc1 (configuration not stated) | > 100 | > 100 | > 100 | > 100 | > 100 | > 100 | – | > 100 | > 100 | – | – | > 100 | > 100
15 | Cc1nc2cc(F)c(F)cc2[nH]c1=O | > 100 | > 100 | > 100 | > 100 | > 100 | > 100 | > 100 | > 100 | > 100 | – | – | – | –
16 | CCN1C/C(=C\c2ccc(Cl)cc2)c2nc(N)c(C#N)c(-c3ccc(Cl)cc3)c2C1 | > 100 | > 100 | > 100 | > 100 | > 100 | > 100 | > 100 | > 100 | > 100 | – | – | – | –
